Assay results as given in patent US10681909B2, “Herbicidal triazoles” (FMC Corporation, priority 2014, dated 2020).

Columns and labels:
[1] = test system: sandbur; test: Test E preemergence; format: in vivo, Cenchrus echinatus; conditions: scale 0 to 100
From the text: (§1) Seeds of plant species selected from corn (Zea mays), soybean (Glycine max), lambsquarters (Chenopodium album), poinsettia, wild (wild poinsettia, Euphorbia heterophylla), pigweed, palmer (palmer pigweed, Amaranthus palmeri), waterhemp (common waterhemp, Amaranthus rudis), surinam grass (Brachiaria decumbens), crabgrass, large (large crabgrass, Digitaria sanguinalis), crabgrass, Brazilian (Brazilian crabgrass, Digitaria horizontalis), panicum, fall (fall panicum, Panicum dichotomiflorum), foxtail, giant (giant foxtail, Setaria faberii), foxtail, green (green foxtail, Setaria viridis), goosegrass (Eleusine indica), johnsongrass (Sorghum halepense), ragweed (common ragweed, Ambrosia elatior), barnyardgrass (Echinochloa crus-galli), sandbur (southern sandbur, Cenchrus echinatus), arrowleaf sida (Sida rhombifolia), ryegrass, Italian (Italian ryegrass, Lolium multiflorum), dayflower, VA (Virginia dayflower, Commelina virginica), field bindweed (Convolvulus arvensis), cocklebur (common cocklebur, Xanthium strumarium), morningglory (Ipomoea coccinea), nightshade (eastern black nightshade, Solanum ptycanthum), kochia (Kochia scoparia), nutsedge, yellow (yellow nutsedge, Cyperus esculentus), smartweed (ladysthumb smartweed, Polygonum persicaria), velvetleaf (Abutilon theophrasti), horseweed (Conyza canadensis), and beggarticks (hairy beggarticks, Bidens pilosa), were planted into a silt loam soil and treated preemergence with test chemicals formulated in a non-phytotoxic solvent mixture which included a surfactant.
(§2) At the same time, plants from these crop and weed species and also waterhemp_RES1, (ALS & Triazine resistant common waterhemp, Amaranthus rudis), and waterhemp_RES2, (ALS & HPPD resistant common waterhemp, Amaranthus rudis) were planted in pots containing Sunshine Redi-Earth® planting medium comprising spaghnum peat moss, vermiculite, starter nutrients and dolomitic limestone were treated with postemergence applications of test chemicals formulated in the same manner. Plants ranged in height from 2 to 18 cm for postemergence treatments (1- to 4-leaf stage). Treated plants and controls were maintained in a greenhouse for 14 to 21 d, after which time all species were compared to controls and visually evaluated. Plant response ratings, summarized in Table E, are based on a scale of 0 to 100 where 0 is no effect and 100 is complete control. A dash (-) response means no test result.

[2] = test system: goosegrass; test: Test E preemergence; format: in vivo, Eleusine indica; conditions: scale 0 to 100
From the text: as §1, §2

[3] = test system: crabgrass, Brazilian; test: Test E postemergence; format: in vivo, Digitaria horizontalis; conditions: Brazil, scale 0 to 100
From the text: as §1, §2

[4] = test system: beggarticks; test: Test E postemergence; format: in vivo, Bidens pilosa; conditions: scale 0 to 100
From the text: as §1, §2

[5] = test system: ryegrass, Italian; test: Test E postemergence; format: in vivo, Lolium multiflorum; conditions: scale 0 to 100
From the text: as §1, §2

[6] = test system: dayflower, VA; test: Test E postemergence; format: in vivo, Commelina virginica; conditions: scale 0 to 100
From the text: as §1, §2

[7] = test system: pigweed, palmer; test: Test E preemergence; format: in vivo, Amaranthus palmeri; conditions: scale 0 to 100
From the text: as §1, §2

[8] = test system: ragweed; test: Test E preemergence; format: in vivo, Ambrosia elatior; conditions: scale 0 to 100
From the text: as §1, §2

[9] = test system: field bindweed; test: Test E preemergence; format: in vivo, Convolvulus arvensis; conditions: scale 0 to 100
From the text: as §1, §2

[10] = test system: foxtail, green; test: Test E preemergence; format: in vivo, Setaria viridis; conditions: scale 0 to 100
From the text: as §1, §2

[11] = test system: waterhemp; test: Test E postemergence; format: in vivo, Amaranthus rudis; conditions: scale 0 to 100
From the text: as §1, §2

[12] = test system: nightshade; test: Test E preemergence; format: in vivo, Solanum ptycanthum; conditions: scale 0 to 100
From the text: as §1, §2

[13] = test system: field bindweed; test: Test E postemergence; format: in vivo, Convolvulus arvensis; conditions: scale 0 to 100
From the text: as §1, §2

[14] = test system: dayflower, VA; test: Test E preemergence; format: in vivo, Commelina virginica; conditions: scale 0 to 100
From the text: as §1, §2

[15] = test system: barnyardgrass; test: Test E postemergence; format: in vivo, Echinochloa crus-galli; conditions: scale 0 to 100
From the text: as §1, §2

[16] = test system: kochia; test: Test E preemergence; format: in vivo, Kochia scoparia; conditions: scale 0 to 100
From the text: as §1, §2

[17] = test system: poinsettia, wild; test: Test E preemergence; format: in vivo, Euphorbia heterophylla; conditions: scale 0 to 100
From the text: as §1, §2

[18] = test system: lambsquarters; test: Test E preemergence; format: in vivo, Chenopodium album; conditions: scale 0 to 100
From the text: as §1, §2

[19] = test system: pigweed, palmer; test: Test E postemergence; format: in vivo, Amaranthus palmeri; conditions: scale 0 to 100
From the text: as §1, §2

[20] = test system: kochia; test: Test E postemergence; format: in vivo, Kochia scoparia; conditions: scale 0 to 100
From the text: as §1, §2

CCc1nc(-c2ccc(C(F)(F)F)cc2)nn1Cc1ccnc(C(F)(F)F)c1 [Compound 1, 4-[[5-ethyl-3-[4-(trifluoromethyl)phenyl]-1H-1,2,4-triazol-1-yl]methyl]-2-(trifluoromethyl)pyridine]
Plant response rating ([1]; 16 g ai/ha): 0 | Plant response rating ([1]; 31 g ai/ha): 10 | Plant response rating ([1]; 62 g ai/ha): 20 | Plant response rating ([1]; 125 g ai/ha): 40 | Plant response rating ([1]; 250 g ai/ha): 50 | Plant response rating ([2]; 16 g ai/ha): 50 | Plant response rating ([2]; 31 g ai/ha): 60 | Plant response rating ([2]; 62 g ai/ha): 60 | Plant response rating ([2]; 125 g ai/ha): 75 | Plant response rating ([2]; 250 g ai/ha): 100 | Plant response rating ([3]; 16 g ai/ha): 20 | Plant response rating ([3]; 31 g ai/ha): 20 | Plant response rating ([3]; 62 g ai/ha): 30 | Plant response rating ([3]; 125 g ai/ha): 30 | Plant response rating ([3]; 250 g ai/ha): 40 | Plant response rating ([4]; 16 g ai/ha): 20 | Plant response rating ([4]; 31 g ai/ha): 40 | Plant response rating ([4]; 62 g ai/ha): 40 | Plant response rating ([4]; 125 g ai/ha): 50 | Plant response rating ([4]; 250 g ai/ha): 60 | Plant response rating ([5]; 16 g ai/ha): 0 | Plant response rating ([5]; 31 g ai/ha): 10 | Plant response rating ([5]; 62 g ai/ha): 10 | Plant response rating ([5]; 125 g ai/ha): 15 | Plant response rating ([5]; 250 g ai/ha): 25 | Plant response rating ([6]; 16 g ai/ha): 20 | Plant response rating ([6]; 31 g ai/ha): 25 | Plant response rating ([6]; 62 g ai/ha): 40 | Plant response rating ([6]; 125 g ai/ha): 50 | Plant response rating ([6]; 250 g ai/ha): 50 | Plant response rating ([7]; 16 g ai/ha): 80 | Plant response rating ([7]; 62 g ai/ha): 98 | Plant response rating ([7]; 125 g ai/ha): 100 | Plant response rating ([7]; 250 g ai/ha): 100 | Plant response rating ([8]; 16 g ai/ha): 0 | Plant response rating ([8]; 31 g ai/ha): 10 | Plant response rating ([8]; 62 g ai/ha): 35 | Plant response rating ([8]; 125 g ai/ha): 65 | Plant response rating ([8]; 250 g ai/ha): 75 | Plant response rating ([9]; 16 g ai/ha): 0 | Plant response rating ([9]; 31 g ai/ha): 10 | Plant response rating ([9]; 62 g ai/ha): 30 | Plant response rating ([9]; 125 g ai/ha): 40 | Plant response rating ([9]; 250 g ai/ha): 50 | Plant response rating ([10]; 16 g ai/ha): 20 | Plant response rating ([10]; 31 g ai/ha): 50 | Plant response rating ([10]; 62 g ai/ha): 50 | Plant response rating ([10]; 125 g ai/ha): 80 | Plant response rating ([10]; 250 g ai/ha): 100 | Plant response rating ([11]; 16 g ai/ha): 65 | Plant response rating ([11]; 31 g ai/ha): 80 | Plant response rating ([11]; 62 g ai/ha): 90 | Plant response rating ([11]; 125 g ai/ha): 95 | Plant response rating ([11]; 250 g ai/ha): 95 | Plant response rating ([12]; 16 g ai/ha): 50 | Plant response rating ([12]; 62 g ai/ha): 75 | Plant response rating ([12]; 125 g ai/ha): 90 | Plant response rating ([12]; 250 g ai/ha): 95 | Plant response rating ([13]; 16 g ai/ha): 40 | Plant response rating ([13]; 31 g ai/ha): 55 | Plant response rating ([13]; 62 g ai/ha): 65 | Plant response rating ([13]; 125 g ai/ha): 65 | Plant response rating ([13]; 250 g ai/ha): 75 | Plant response rating ([14]; 16 g ai/ha): 5 | Plant response rating ([14]; 31 g ai/ha): 15 | Plant response rating ([14]; 62 g ai/ha): 25 | Plant response rating ([14]; 125 g ai/ha): 65 | Plant response rating ([14]; 250 g ai/ha): 80 | Plant response rating ([15]; 16 g ai/ha): 10 | Plant response rating ([15]; 31 g ai/ha): 10 | Plant response rating ([15]; 62 g ai/ha): 15 | Plant response rating ([15]; 125 g ai/ha): 20 | Plant response rating ([15]; 250 g ai/ha): 30 | Plant response rating ([16]; 16 g ai/ha): 20 | Plant response rating ([16]; 31 g ai/ha): 60 | Plant response rating ([16]; 62 g ai/ha): 80 | Plant response rating ([16]; 125 g ai/ha): 90 | Plant response rating ([16]; 250 g ai/ha): 95 | Plant response rating ([17]; 16 g ai/ha): 10 | Plant response rating ([17]; 31 g ai/ha): 30 | Plant response rating ([17]; 62 g ai/ha): 40 | Plant response rating ([17]; 125 g ai/ha): 40 | Plant response rating ([17]; 250 g ai/ha): 50 | Plant response rating ([18]; 16 g ai/ha): 10 | Plant response rating ([18]; 31 g ai/ha): 65 | Plant response rating ([18]; 62 g ai/ha): 90 | Plant response rating ([18]; 125 g ai/ha): 95 | Plant response rating ([18]; 250 g ai/ha): 95 | Plant response rating ([19]; 16 g ai/ha): 80 | Plant response rating ([19]; 31 g ai/ha): 90 | Plant response rating ([19]; 62 g ai/ha): 90 | Plant response rating ([19]; 125 g ai/ha): 100 | Plant response rating ([19]; 250 g ai/ha): 100

COc1nc(-c2ccc(Cl)cc2)nn1Cc1ccnc(C(F)(F)F)c1 [Compound 28]
Plant response rating ([3]; 31 g ai/ha): 40 | Plant response rating ([3]; 62 g ai/ha): 50 | Plant response rating ([3]; 125 g ai/ha): 50 | Plant response rating ([3]; 250 g ai/ha): 50 | Plant response rating ([4]; 31 g ai/ha): 50 | Plant response rating ([4]; 62 g ai/ha): 60 | Plant response rating ([4]; 125 g ai/ha): 50 | Plant response rating ([4]; 250 g ai/ha): 60 | Plant response rating ([5]; 31 g ai/ha): 10 | Plant response rating ([5]; 62 g ai/ha): 20 | Plant response rating ([5]; 125 g ai/ha): 25 | Plant response rating ([5]; 250 g ai/ha): 30 | Plant response rating ([6]; 31 g ai/ha): 60 | Plant response rating ([6]; 62 g ai/ha): 70 | Plant response rating ([6]; 125 g ai/ha): 70 | Plant response rating ([6]; 250 g ai/ha): 70 | Plant response rating ([11]; 31 g ai/ha): 90 | Plant response rating ([11]; 62 g ai/ha): 90 | Plant response rating ([11]; 125 g ai/ha): 95 | Plant response rating ([11]; 250 g ai/ha): 95 | Plant response rating ([20]; 31 g ai/ha): 90 | Plant response rating ([20]; 62 g ai/ha): 95 | Plant response rating ([20]; 125 g ai/ha): 95 | Plant response rating ([20]; 250 g ai/ha): 95 | Plant response rating ([13]; 31 g ai/ha): 50 | Plant response rating ([13]; 62 g ai/ha): 75 | Plant response rating ([13]; 125 g ai/ha): 80 | Plant response rating ([13]; 250 g ai/ha): 80 | Plant response rating ([15]; 31 g ai/ha): 20 | Plant response rating ([15]; 62 g ai/ha): 25 | Plant response rating ([15]; 125 g ai/ha): 40 | Plant response rating ([15]; 250 g ai/ha): 40 | Plant response rating ([19]; 31 g ai/ha): 100 | Plant response rating ([19]; 62 g ai/ha): 90 | Plant response rating ([19]; 125 g ai/ha): 90 | Plant response rating ([19]; 250 g ai/ha): 95
